Results taken from patent US11266632B1, “Maslinic and oleanolic acids derivatives for treating SARS-CoV-2 infection” (priority 2021, dated 2022).
Like-named read-outs stand apart in the source and are kept apart here.

Tests used:
[1] = tested on: SARS-CoV-2 "NRC-03-nhCoV" virus; assay: Inhibitory concentration 50 (IC50) determination, virus-induced cytopathic effect in Vero-E6 cells, crystal violet; format: cell-based; conditions: for Selectivity Index (CC50/IC50): CC50 Vero E6 / IC50 NRC-03-nhCoV
NRC-03-nhCoV = assay: Mode of antiviral action, plaque infectivity reduction assay in Vero-E6 cells; format: cell-based, SARS-CoV-2
Method: To investigate whether the tested compound with high selectivity index and antiviral activity against NRC-03-nhCoV affect (a) viral adsorption, (b) viral replication or (c) viricidal effect, a plaque infectivity reduction assay was performed according to the following protocols:
The viral adsorption mechanism was assayed according to a protocol by Zhang et al. with modifications. Vero-E6 cells were cultivated in a 6-well plate (10^5 cells/mL) for 24 h at 37° C. Each tested drug was applied in 500 μL of medium without supplements and co-incubated with the cells for 2 h at 4° C. The non-absorbed drug in the applied inocula was removed by washing cells three times with 1×PBS. The NRC-03-nhCoV was diluted to a countable range “10-4” and co-incubated with the pretreated cells. About 1 h post-incubation, the inocula were removed and 3 mL of agarose overlay (1:1 mixture of warmed 2× plaque media and a stock solution of heated 2% agarose) were added. The plates were kept at room temperature to solidify and then incubated at 37° C. to allow the formation of viral plaques. […]
The impact of the tested drug on viral replication was determined as previously described. […] The analyzed compound was then applied in varying concentrations to infected cells for another 1 h contact time at 37° C. […]
The virucidal mechanism was analyzed. […]

[2] = tested on: MERS-CoV virus "NRCE-HKU270"; format: cell-based; conditions: Vero E6 cells
[3] = Severe acute respiratory syndrome coronavirus 2, Vero C1008, 72 h
[4] = Severe acute respiratory syndrome coronavirus 2, Vero C1008, 72 h, NRC-03-nhCoV in Vero E6, 72 h, reduction of CPE by 50%, read-out: IC50

| Structure (SMILES) | Selectivity Index (CC50/IC50) [1] | IC50 [1, 4] [µM] | also measured |
| --- | --- | --- | --- |
| CC1(C)CC[C@]2(C(=O)O)CC[C@]3(C)C(=CC[C@@H]4[C@@]5(C)CC[C@H](O)C(C)(C)[C@@H]5CC[C@]43C)[C@@H]2C1 [Compound 1, Oleanic acid] | 0.39 | – | IC50 [1, 3]: 476 µM |
| CC1(C)CC[C@]2(C(=O)O)CC[C@]3(C)C(=CC[C@@H]4[C@@]5(C)C[C@@H](O)[C@H](O)C(C)(C)[C@@H]5CC[C@]43C)[C@@H]2C1 [Compound 2, Maslinic acid] | 0.97 | – | IC50 [1, 3]: 99.9 µM |
| C#CCOC(=O)[C@]12CCC(C)(C)CC1C1=CCC3[C@@]4(C)CC[C@H](O)C(C)(C)C4CC[C@@]3(C)[C@]1(C)CC2 (stereo partly drawn) [Compound 3, Propargyl-(3β)-3-hydroxyolean-12-en-28-oate] | 2.32 | – | – |
| C#CCOC(=O)[C@]12CCC(C)(C)CC1C1=CCC3[C@@]4(C)C[C@@H](O)[C@H](O)C(C)(C)C4CC[C@@]3(C)[C@]1(C)CC2 (stereo partly drawn) [Compound 4, Propargyl-(2α,3β)-2,3-dihydroxyolean-12-en-28-oate] | 0.67 | – | IC50 [1, 3]: 236 µM |
| C#CCOC(=O)[C@]12CCC(C)(C)CC1C1=CCC3[C@@]4(C)C[C@@H](OCC#C)[C@H](O)C(C)(C)C4CC[C@@]3(C)[C@]1(C)CC2 (stereo partly drawn) [Compound 5, Propargyl-(2α)-2-(propargyloxy)-(3β)-3-hydroxy-olean-12-en-28-oate] | 1.06 | 85.2 | – |
| C#CCOC(=O)[C@]12CCC(C)(C)CC1C1=CCC3[C@@]4(C)C[C@@H](O)[C@H](OCC#C)C(C)(C)C4CC[C@@]3(C)[C@]1(C)CC2 (stereo partly drawn) [Compound 6, Propargyl-(3α)-3-(propargyloxy)-(2β)-2-hydroxy-olean-12-en-28-oate] | 1.55 | 135 | – |
| C#CCOC(=O)[C@]12CCC(C)(C)CC1C1=CCC3[C@@]4(C)C[C@@H](OCC#C)[C@H](OCC#C)C(C)(C)C4CC[C@@]3(C)[C@]1(C)CC2 (stereo partly drawn) [Compound 7, Propargyl-(2α,3β)-2,3-bis(propargyloxy)-olean-12-en-28-oate] | 0.9 | 108 | – |
| Cc1cccc(-n2nncc2COC(=O)[C@]23CCC(C)(C)CC2C2=CCC4[C@@]5(C)CC[C@H](O)C(C)(C)C5CC[C@@]4(C)[C@]2(C)CC3)c1 (stereo partly drawn) [Compound 8, (1-(3-mcthylphenyl)-1H-1,2,3-triazol-5-yl)methyl-(3β)-3-hydroxyolean-12-en-28-oate] | 0.98 | 174 | – |
| Cc1cccc(-n2cc(COC(=O)[C@]34CCC(C)(C)CC3C3=CCC5[C@@]6(C)CC[C@H](O)C(C)(C)C6CC[C@@]5(C)[C@]3(C)CC4)nn2)c1 (stereo partly drawn) [Compound 10, (1-(3-methylphenyl)-1H-1,2,3-triazol-4-yl)methyl-(3β)-3-hydroxyolean-12-en-28-oate] | 3.68 | – | – |
| CC1(C)CC[C@]2(C(=O)OCc3cn(-c4ccccc4)nn3)CC[C@]3(C)C(=CCC4[C@@]5(C)C[C@@H](O)[C@H](O)C(C)(C)C5CC[C@]43C)C2C1 (stereo partly drawn) [Compound 11, (1-Phenyl-1H-1,2,3-triazol-4-yl)methyl-(2α,3β)-2,3-dihydroxyolean-12-en-28-oate] | 1.62 | 135 | – |
| CC1(C)CC[C@]2(C(=O)OCc3cn(-c4ccc(Cl)cc4)nn3)CC[C@]3(C)C(=CCC4[C@@]5(C)C[C@@H](OCc6cn(-c7ccc(Cl)cc7)nn6)[C@H](O)C(C)(C)C5CC[C@]43C)C2C1 (stereo partly drawn) [Compound 12, (1-(4-Chlorophenyl)-1H-1,2,3-triazol-4-yl)methyl-(2α,3β)-2-((1-(4-chlorophenyl)-1H-1,2,3-triazol-4-yl)methoxy)-3-hydroxyolean-12-en-28-oate] | 4.42 | 116 | – |
| COc1ccc(-n2cc(COC(=O)[C@]34CCC(C)(C)CC3C3=CCC5[C@@]6(C)C[C@@H](O)[C@H](OCc7cn(-c8ccc(OC)cc8)nn7)C(C)(C)C6CC[C@@]5(C)[C@]3(C)CC4)nn2)cc1 (stereo partly drawn) [Compound 13, (1-(4-Methoxyphenyl)-1H-1,2,3-triazol-4-yl)methyl-(2α,3β)-2-hydroxy-3-((1-(4-methoxyphenyl)-1H-1,2,3-triazol-4-yl)methoxy)-olean-12-en-28-oate] | 2.24 | 159 | – |
| COc1ccc(-n2cc(COC(=O)[C@]34CCC(C)(C)CC3C3=CCC5[C@@]6(C)C[C@@H](OCc7cn(-c8ccc(OC)cc8)nn7)[C@H](OCc7cn(-c8ccc(OC)cc8)nn7)C(C)(C)C6CC[C@@]5(C)[C@]3(C)CC4)nn2)cc1 (stereo partly drawn) [Compound 14, (1-(4-Methoxyphenyl)-1H-1,2,3-triazol-4-yl)methyl-(2α,3β)-2,3-bis((1-(4-methoxyphenyl)-1H-l,2,3-triazol-4-yl)methoxy)-olean-12-en-28-oate] | 2.96 | 137 | – |
| COc1ccc(-c2cc(COC(=O)[C@]34CCC(C)(C)CC3C3=CCC5[C@@]6(C)CC[C@H](O)C(C)(C)C6CC[C@@]5(C)[C@]3(C)CC4)on2)cc1 (stereo partly drawn) [Compound 15, (3-(4-methoxyphenyl)isoxazol-5-yl) methyl-(3β)-3-hydroxyolean-12-en-28-oate] | 0.79 | – | – |
| COc1ccc(-c2cc(COC(=O)[C@]34CCC(C)(C)CC3C3=CCC5[C@@]6(C)C[C@@H](O)[C@H](O)C(C)(C)C6CC[C@@]5(C)[C@]3(C)CC4)on2)cc1 (stereo partly drawn) [Compound 16, (3-(4-methoxyphenyl)isoxazol-5-yl) methyl-(2α,3β)-2,3-dihydroxyolean-12-en-28-oate] | 1.48 | – | – |
| CC1(C)CC[C@]2(C(=O)OCc3cc(-c4ccc(Cl)cc4)no3)CC[C@]3(C)C(=CCC4[C@@]5(C)C[C@@H](O)[C@H](O)C(C)(C)C5CC[C@]43C)C2C1 (stereo partly drawn) [Compound 17, (3-(4-chlorophenyl)isoxazol-5-yl) methyl-(2α,3β)-2,3-dihydroxyolean-12-en-28-oate] | – | 4.12 | interference with viral adsorption and replication (NRC-03-nhCoV): efficiently impair viral replication and adsorption; virucidal effect (NRC-03-nhCoV): virucidal effect; antiviral activity against NRCE-HKU270 [2]: promising antiviral activity against NRCE-HKU270 at micromolar concentrations; IC50 ([1]; NRC-03-nhCoV in Vero E6, 72 h, reduction of CPE by 50%, read-out: IC50): 4.12 to 99.9 µM |
